Calls of active or inactive are those of the source. No cut-off for these calls is given here.
Assays:
[1] = target: T1, Vitamin D3 receptor (Mus musculus) (UniProt P48281); test: Activation of VDR in mouse ASZ001 cells assessed as upregulation of Cyp24A1 mRNA expression at 5 uM measured after 48 hrs by RT-PCR analysis relative to control; format: cell-based
T1 sequence (whole entry): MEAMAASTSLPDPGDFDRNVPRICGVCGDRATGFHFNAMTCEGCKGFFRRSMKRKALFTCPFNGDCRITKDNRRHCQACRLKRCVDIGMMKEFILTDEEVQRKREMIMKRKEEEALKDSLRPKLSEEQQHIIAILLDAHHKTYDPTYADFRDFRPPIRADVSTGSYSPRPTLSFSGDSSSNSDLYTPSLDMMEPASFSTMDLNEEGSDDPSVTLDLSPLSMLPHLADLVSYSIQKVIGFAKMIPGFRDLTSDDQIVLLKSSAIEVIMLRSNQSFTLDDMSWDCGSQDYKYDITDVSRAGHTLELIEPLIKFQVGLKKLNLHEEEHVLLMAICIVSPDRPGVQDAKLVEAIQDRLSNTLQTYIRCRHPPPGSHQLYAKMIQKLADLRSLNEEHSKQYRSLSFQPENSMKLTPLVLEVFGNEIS

[2] = target: T1, Vitamin D3 receptor (Mus musculus); test: Activation of VDR in mouse C3H 10T1/2 cells assessed as upregulation of Cyp24A1 mRNA expression at 5 uM measured after 48 hrs by RT-PCR analysis relative to control; format: cell-based
[3] = Inhibition of hedgehog signalling in mouse C3H 10T1/2 cells assessed as reduction in Gli1 mRNA expression measured after 48 hrs by RT-PCR analysis; format: cell-based; details: C3H 10T1/2, 48 h
[4] = Binding affinity to recombinant human HSP70 assessed as dissociation constant incubated for 1 hrs […]
[5] = Inhibition of hedgehog signalling in mouse ASZ001 cells assessed as reduction in Gli1 mRNA expression measured after 48 hrs by RT-PCR analysis; format: cell-based; details: ASZ001, 48 h
[6] = Inhibition of hedgehog signalling in mouse Sufu-KO MEF cells assessed as reduction in Gli1 mRNA expression measured after 48 hrs by RT-PCR analysis; format: cell-based
[7] = Inhibition of hedgehog signalling in mouse Ptch-KO MEF cells assessed as reduction in Gli1 mRNA expression measured after 48 hrs by RT-PCR analysis; format: cell-based
ASZ001 [8] = test: Antiproliferative activity against mouse ASZ001 assessed as reduction in cell proliferation incubated for 72 hrs by MTS assay; format: functional, cell-based
Homo sapiens [9] = species on record: Homo sapiens; test: Binding affinity to recombinant human HSP70 incubated for 1 hrs by Western blotting based pull-down assay; details: filed as antagonist
Homo sapiens [10] = species on record: Homo sapiens; test: Binding affinity to recombinant human HSP70 at 200 uM incubated for 1 hrs in presence of calcidiol by Western blotting based pull-down assay
Homo sapiens [11] = species on record: Homo sapiens; test: Binding affinity to recombinant human HSP70 at 200 uM incubated for 1 hrs in presence of Calcitriol by Western blotting based pull-down assay; details: filed as antagonist
C3H 10T1/2 = test: Antiproliferative activity against mouse C3H 10T1/2 assessed as reduction in cell proliferation incubated for 72 hrs by MTS assay; format: functional, cell-based
Homo sapiens [12] = species on record: Homo sapiens; test: Competitive binding affinity to recombinant human HSP70 at 200 uM incubated for 1 hrs in presence of Vitamin D3 by Western blotting based pull-down assay
ASZ001 [13] = test: Inhibition of hedgehog signalling in mouse ASZ001 cells assessed as reduction in Gli1 mRNA expression at 10 uM for 20 hrs by […]; format: cell-based
[14] = Inhibition of hedgehog signalling in mouse VDR-KO MEF cells assessed as reduction in Gli1 mRNA expression measured after 48 hrs by RT-PCR analysis; format: cell-based
[15] = target: T1, Vitamin D3 receptor (Mus musculus); test: Activation of VDR in mouse C3H 10T1/2 cells assessed as upregulation of Cyp24A1 mRNA expression at 2.5 uM measured after 48 hrs by RT-PCR analysis relative to control; format: cell-based; details: filed as activator
Mus musculus = species on record: Mus musculus; test: Selectivity index, ratio of IC50 for Inhibition of hedgehog signalling in mouse VDR-KO MEF cells to IC50 for inhibition of hedgehog signalling in mouse ASZ001 cells; format: cell-based
[16] = target: T1, Vitamin D3 receptor (Mus musculus); test: Activation of VDR in mouse ASZ001 cells assessed as upregulation of Cyp24A1 mRNA expression at 2.5 uM measured after 48 hrs by RT-PCR analysis relative to control; format: cell-based; details: filed as activator
MEF [17] = test: Inhibition of hedgehog signalling in mouse Sufu-KO MEF cells assessed as upregulation of VDR expression at 10 uM in by immunoblot analysis; format: cell-based
ASZ001 [18] = test: Inhibition of hedgehog signalling in mouse ASZ001 cells assessed as upregulation of VDR expression in by immunoblot analysis; format: cell-based
MEF [19] = test: Inhibition of hedgehog signalling in mouse Sufu-KO MEF cells assessed as upregulation of VDR expression at >15 uM in by immunoblot analysis; format: cell-based; details: dose microM >15
MEF [20] = test: Inhibition of hedgehog signalling in mouse Sufu-KO MEF cells assessed as upregulation of Cyp27B1 expression by immunoblot analysis; format: cell-based
MEF [21] = test: Inhibition of hedgehog signalling in mouse Sufu-KO MEF cells assessed as upregulation of Cyp27A1 expression by immunoblot analysis; format: cell-based
ASZ001 [22] = test: Inhibition of hedgehog signalling in mouse ASZ001 cells assessed as downregulation of VDR expression in by immunoblot analysis; format: cell-based
ASZ001 [23] = test: Inhibition of hedgehog signalling in mouse ASZ001 cells assessed as upregulation of Cyp27B1 expression by immunoblot analysis; format: cell-based
ASZ001 [24] = test: Inhibition of hedgehog signalling in mouse ASZ001 cells assessed as upregulation of Cyp27A1 expression by immunoblot analysis; format: cell-based

Compound	Activity ([1]; filed as activator) [%]	Activity ([2]; filed as activator) [%]	IC50 [3] [nM]	Kd [4] [nM]	IC50 [5] [nM]	Activity [1] [%]	also measured
C=C1CC[C@H](O)C/C1=C/C=C1\CCC[C@]2(C)[C@@H]([C@H](C)[C@@H](O)CCC(C)(C)O)CC[C@@H]12	130	540	1200	> 50000	1700		
CCn1c(=O)/c(=C2\Sc3ccccc3N2C)s/c1=C\c1cccc[n+]1CC.[Cl-]			5600		1800		IC50 ([6]; mef): Not Active; IC50 [7]: 9500 nM
C=C1CC[C@H](O)C/C1=C/C=C1\CCC[C@]2(C)[C@@H]([C@H](C)[C@@H](CCC(C)(C)O)OCc3cn(CCOCCOCCOCCNC(=O)CCCC[C@H]4SC[C@H]5NC(=O)N[C@H]54)nn3)CC[C@@H]12			1900		1100	< 1	Activity (ASZ001 [8]): Active; Activity (Homo sapiens [9]): Dose-Dependent Effect; Activity (Homo sapiens [10]): inactive; Activity (Homo sapiens [11]): Active; Activity (C3H 10T1/2): Active; Activity (Homo sapiens [12]): inactive; Activity [2]: < 1%; Activity (ASZ001 [13]): Active
C=C1CC[C@H](O)C/C1=C/C=C1\CCC[C@]2(C)[C@@H]([C@H](C)[C@H](O)CCC(C)C)CC[C@@H]12	103	214	1200	4300	420		
C=C1CC[C@H](O)C/C1=C/C=C1\CCC[C@]2(C)[C@@H]([C@H](C)CCCC(C)(C)O)CC[C@@H]12 [CALCIFEDIOL ANHYDROUS]			480	6500	400		IC50 [14]: 4400 nM; Activity [15]: > 500%; Ratio IC50 (Mus musculus): 11; Activity [16]: > 500%
COc1ccc(-c2nc(-c3cc(C(F)(F)F)cc(C(F)(F)F)c3)n(Cc3ccc(C(N)=O)cc3)c2-c2ccc(OC)cc2)cc1			970	840	580		IC50 ([6]; mef): Not Active; IC50 [7]: 1700 nM
C=C1CC[C@H](O)C/C1=C/C=C1\CCC[C@]2(C)[C@@H]([C@H](C)[C@H](O)CCC(C)(C)O)CC[C@@H]12	122	527	790	40300	710		
C#CCO[C@H](CCC(C)(C)O)[C@@H](C)[C@H]1CC[C@H]2/C(=C/C=C3/C[C@@H](O)CCC3=C)CCC[C@]12C					13800	< 1	
C#CCO[C@H](CCC(C)C)[C@@H](C)[C@H]1CC[C@H]2/C(=C/C=C3/C[C@@H](O)CCC3=C)CCC[C@]12C			1100		430	9	Activity [2]: < 1%
C=C1/C(=C\C=C2/CCC[C@]3(C)[C@@H]([C@H](C)CCCC(C)(C)O)CC[C@@H]23)C[C@@H](O)C[C@@H]1O							Activity (MEF [17]): Active; Activity (ASZ001 [18]): Active
C=C1CC[C@H](O)C/C1=C/C=C1\CCC[C@]2(C)[C@@H]([C@H](C)[C@H](CCC(C)(C)O)OCc3cn(CCOCCOCCOCCNC(=O)CCCC[C@H]4SC[C@H]5NC(=O)N[C@H]54)nn3)CC[C@@H]12			7200		3400	< 1	Activity (ASZ001 [8]): Active; Activity (C3H 10T1/2): Active; Activity [2]: < 1%
C=C1CC[C@H](O)C/C1=C/C=C1\CCC[C@]2(C)[C@@H]([C@H](C)[C@@H](O)CCC(C)C)CC[C@@H]12	105	261	1300	11500	380		
C#CCO[C@@H](CCC(C)C)[C@@H](C)[C@H]1CC[C@H]2/C(=C/C=C3/C[C@@H](O)CCC3=C)CCC[C@]12C			2600		260	< 1	Activity [2]: < 1%
C=C1CC[C@H](O)C/C1=C/C=C1\CCC[C@]2(C)[C@@H]([C@H](C)CCCC(C)C)CC[C@@H]12 [CHOLECALCIFEROL]	100	100	4100	1400	2100		inhibition (MEF [19]): Active; IC50 ([6]; Mus musculus, MEF, 48 h, read-out: IC50): 13600 nM; Activity (MEF [20]): Dose-Dependent Effect; Activity (MEF [21]): Dose-Dependent Effect; Activity (ASZ001 [22]): inactive; Ratio IC50 (Mus musculus): 2; Activity (ASZ001 [23]): inactive; Activity (ASZ001 [24]): inactive; IC50 [7]: 5800 nM

— ChEMBL document CHEMBL5046232, “Affinity-based protein profiling identifies vitamin D3 as a heat shock protein 70 antagonist that regulates hedgehog transduction in murine basal cell carcinoma” (Eur J Med Chem, 2022)
